Where only a bound is given, the exact number is not on record here.

The values below come from patent US9133115B2 (ACHILLION PHARMACEUTICALS, INC., priority 2008, dated 2015).

The assay has as its system HCV replicon. Nature of the assay: HCV replicon replication assay (NPT ELISA) in Huh-7 replicon-containing cells. It counts as cell-based. The conditions noted are these: Hepatitis C virus, 72 h; HCV replicon in Huh-7 cells, three days incubation; read-out: EC50. The essentials: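 Huh-7 cells carrying a bicistronic HCV replicon (HCV-IRES-neo, EMCV-IRES-driven NS3–NS5B, 3′-NTR) were seeded at 6000-7500 cells/well, grown 24 h to 60-70% confluence, then treated with graded compound concentrations. Replication was read as NPT level by capture ELISA (rabbit anti-NPTII, Eu-N1 secondary); interferon alpha served as positive control.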
In general, EC50 refers to the concentration needed to bring the measured effect to its halfway point. With `C=C[C@@H]1C[C@]1(NC(=O)[C@@H]1C[C@@H](Oc2cc(-c3csc(NC(C)C)n3)nc3c(C)c(OC)ccc23)CN1C(=O)[C@@H](CC(=O)N1CCC(C(F)(F)F)CC1)C(C)(C)C)C(=O)NS(=O)(=O)C1CC1` [Compound 238, (2S,4R)-1-((S)-2-tert-butyl-4-oxo-4-(4-(trifluoro-methyl)piperidin-1-yl)butanoyl)-N-((2S)-1-(cyclopropyl-sulfonylcarbamoyl)-2-vinylcyclopropyl)-4-(2-(2-(isopropyl-amino)thiazol-4-yl)-7-methoxy-8-methylquinolin-4-yloxy)pyrrolidine-2-carboxamide], the half-maximal effective concentration (EC50) is below 1 µM.

Consider `C=C[C@@H]1C[C@]1(NC(=O)[C@@H]1C[C@@H](Oc2cc(-c3ccccc3)nc3c(C)c(OC)ccc23)CN1C(=O)[C@@H](CC(=O)N1CCCCC1)C(C)(C)C)C(=O)NS(=O)(=O)C1CC1` [Compound 239], for which the concentration giving a half-maximal response (EC50) is below 1 µM. As for `C=C[C@@H]1C[C@]1(NC(=O)[C@@H]1C[C@@H](Oc2cc(-c3ccccc3)nc3c(C)c(OC)ccc23)CN1C(=O)[C@@H](CC(=O)N1CCC(C(F)(F)F)CC1)C(C)(C)C)C(=O)NS(=O)(=O)C1CC1` [Compound 240, (2S,4R)-1-((S)-2-tert-butyl-4-oxo-4-(4-(trifluoro-methyl)piperidin-1-yl)butanoyl)-N-((1R)-1-(cyclopropyl-sulfonylcarbamoyl)-2-vinylcyclopropyl)-4-(7-methoxy-8-methyl-2-phenylquinolin-4-yloxy)pyrrolidine-2-carboxamide], the EC50 was below 1 µM.

As for `C=C[C@@H]1C[C@]1(NC(=O)[C@@H]1C[C@@H](Oc2cc(-c3ccccc3)nc3c(C)c(OC)ccc23)CN1C(=O)[C@@H](CC(=O)N1CCCC(F)(F)C1)C(C)(C)C)C(=O)NS(=O)(=O)C1CC1` [Compound 241, (2S,4R)-1-((S)-2-tert-butyl-4-(3,3-difluoropiperidin-1-yl)-4-oxobutanoyl)-N-((2S)-1-(cyclopropyl-sulfonylcarbamoyl)-2-vinylcyclopropyl)-4-(7-methoxy-8-methyl-2-phenylquinolin-4-yloxy)pyrrolidine-2-carboxamide], the concentration giving a half-maximal response (EC50) was below 1 µM. As for `C=C[C@@H]1C[C@]1(NC(=O)[C@@H]1C[C@@H](Oc2cc(-c3ccccn3)nc3c4c(ccc23)CCC4)CN1C(=O)[C@@H](CC(=O)N1CCCCC1)C(C)(C)C)C(=O)NS(=O)(=O)C1CC1` [Compound 242, (2S,4R)-1-((S)-2-tert-butyl-4-oxo-4-(piperidin-1-yl)butanoyl)-N-((2S)-1-(cyclopropyl-sulfonylcarbamoyl)-2-vinylcyclopropyl)-4-(2-(pyridin-2-yl)-8,9-dihydro-7H-cyclopenta[h]quino-lin-4-yloxy)pyrrolidine-2-carboxamide], the concentration giving a half-maximal response (EC50) was below 1 µM. Turning to `C=C[C@@H]1C[C@]1(NC(=O)[C@@H]1C[C@@H](Oc2nc(-c3ccccn3)cc3c(Cl)c(OC)ccc23)CN1C(=O)[C@@H](CC(=O)N1CCCCC1)C(C)(C)C)C(=O)NS(=O)(=O)C1CC1` [Compound 243, (2S,4R)-1-((S)-2-tert-butyl-4-oxo-4-(piperidin-1-yl)butanoyl)-4-(5-chloro-6-methoxy-3-(pyridin-2-yl)isoquinolin-1-yloxy)-N-((2S)-1-(cyclopropyl-sulfonylcarbamoyl)-2-vinylcyclo-propyl)pyrrolidine-2-carboxamide], the EC50 is below 1 µM.

Take `C=C[C@@H]1C[C@]1(NC(=O)[C@@H]1C[C@@H](Oc2nc(-c3ccccn3)cc3c(Cl)c(OC)ccc23)CN1C(=O)[C@@H](CC(=O)N1CCCC(F)(F)C1)C(C)(C)C)C(=O)NS(=O)(=O)C1CC1` [Compound 244, (2S,4R)-1-((S)-2-tert-butyl-4-(3,3-difluoropiperidin-1-yl)-4-oxobutanoyl)-4-(5-chloro-6-methoxy-3-(pyridin-2-yl)isoquinolin-1-yloxy)-N-((2S)-1-(cyclopropyl-sulfonylcarbamoyl)-2-vinylcyclo-propyl)pyrrolidine-2-carboxamide]: the concentration giving a half-maximal response (EC50) is below 1 µM.

As to `C=C[C@@H]1C[C@]1(NC(=O)[C@@H]1C[C@@H](Oc2cc(-c3ccccn3)nc3c(C)c(OC)ccc23)CN1C(=O)[C@@H](CC(=O)N1CCCC(F)(F)C1)C(C)(C)C)C(=O)NS(=O)(=O)C1CC1` [Compound 246, (2S,4R)-1-((S)-2-tert-butyl-4-(3,3-difluoropiperidin-1-yl)-4-oxobutanoyl)-N-((2S)-1-(cyclopropyl-sulfonylcarbamoyl)-2-vinylcyclopropyl)-4-(7-methoxy-8-methyl-2-(pyridin-2-yl)quinolin-4-yloxy)pyrrolidine-2-carboxamide], the EC50 was below 1 µM. On to `C=C[C@@H]1C[C@]1(NC(=O)[C@@H]1C[C@@H](Oc2nccc3c(Cl)c(OC)ccc23)CN1C(=O)[C@@H](CC(=O)N1CCCC(F)(F)C1)C(C)(C)C)C(=O)NS(=O)(=O)C1CC1` [Compound 247, (2S,4R)-1-((S)-2-tert-butyl-4-(3,3-difluoropiperidin-1-yl)-4-oxobutanoyl)-4-(5-chloro-6-methoxyisoquinolin-1-yloxy)-N-((2S)-1-(cyclopropyl-sulfonylcarbamoyl)-2-vinylcyclo-propyl)pyrrolidine-2-carboxamide], for which the concentration for a half-maximal effect (EC50) was below 1 µM. Then `C=C[C@@H]1C[C@]1(NC(=O)[C@@H]1C[C@@H](Oc2cc(-c3nc(C(C)C)cs3)nc3c(C)c(OC)ccc23)CN1C(=O)[C@@H](CC(=O)N1CCCC(F)(F)C1)C(C)(C)C)C(=O)NS(=O)(=O)C1CC1` [Compound 248, (2S,4R)-1-((S)-2-tert-butyl-4-(3,3-difluoropiperidin-1-yl)-4-oxobutanoyl)-N-((2S)-1-(cyclopropyl-sulfonylcarbamoyl)-2-vinylcyclopropyl)-4-(2-(4-isopropylthiazol-2-yl)-7-methoxy-8-methylquinolin-4-yloxy)pyrrolidine-2-carboxamide], with below 1 µM; and `C=C[C@@H]1C[C@]1(NC(=O)[C@@H]1C[C@@H](Oc2cc(-c3nc(C(C)C)cs3)nc3cc(OC)ccc23)CN1C(=O)[C@@H](CC(=O)N1CCCC(F)(F)C1)C(C)(C)C)C(=O)NS(=O)(=O)C1CC1` [Compound 251, (2S,4R)-1-((S)-2-tert-butyl-4-(3,3-difluoropiperidin-1-yl)-4-oxobutanoyl)-N-((2S)-1-(cyclopropyl-sulfonylcarbamoyl)-2-vinylcyclopropyl)-4-(2-(4-isopropylthiazol-2-yl)-7-methoxyquinolin-4-yloxy)pyrrolidine-2-carboxamide], with below 1 µM. For `C=C[C@@H]1C[C@]1(NC(=O)[C@@H]1C[C@@H](Oc2cc(-c3cccnc3)nc3c(C)c(OC)ccc23)CN1C(=O)[C@@H](CC(=O)N1CCCC(F)(F)C1)C(C)(C)C)C(=O)NS(=O)(=O)C1CC1` [Compound 252, (2S,4R)-1-((S)-2-tert-butyl-4-(3,3-difluoropiperidin-1-yl)-4-oxobutanoyl)-N-((2S)-1-(cyclopropyl-sulfonylcarbamoyl)-2-vinylcyclopropyl)-4-(7-methoxy-8-methyl-2-(pyridin-3-yl)quinolin-4-yloxy)pyrrolidine-2-carboxamide], the EC50 was below 1 µM.
